The values that follow come from patent US10285989B2, “Pyrimidinone amide compounds as PDE2 inhibitors” (Merck Sharp & Dohme Corp., priority 2015, dated 2019).

Read-outs that look alike come from different tables or passages of the source.

One data set deals with Rhesus PDE2A3 (Macaca mulatta, UniProt B3VTJ2). As to the kind of experiment: PDE2 fluorescence polarization (IMAP FP) inhibition assay, rhesus PDE2A3. It counts as biochemical, rhesus macaque.
Another data set concerns the target human PDE2A1 (Homo sapiens (Human), UniProt O00408). As to the kind of experiment: PDE2 IMAP FP inhibition assay, human PDE2A1 (selectivity panel format). It counts as biochemical. The method, boiled down:
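Enzyme dosed to give about 20% substrate turnover acts for 60 min at room temperature on 50 nM FAM-cAMP plus 1000 nM cGMP (Tris pH 7.2, MgCl2, DTT, Tween-20 buffer). IMAP binding solution then stops the reaction; after 1 h, polarization is measured from parallel and perpendicular fluorescence.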

The target in another data set is P-glycoprotein (P-gp) (Homo sapiens (Human), UniProt P08183). Put plainly: P-gp transport, experimental BA/AB ratio, human. It counts as in vitro ADME. The conditions noted are these: LLC-PK1, 1 μM substrate concentration. The text has this: (§1) See Doan et al. “Passive permeability and P-glycoprotein-mediated efflux differentiate central nervous system (CNS) and non-CNS marketed drugs”, J. Pharm. Exper. […] Desirable human BA/AB ratio is less than 2.0. […] See, for example, Desai, et al. Integration of in Silico and in Vitro Tools for Scaffold Optimization during Drug Discovery: Predicting P-glycoprotein Efflux” Mol. Pharmac.

Data set [1] has as its target P-glycoprotein (P-gp, rat Mdr1a) (Rattus norvegicus, UniProt Q6PSM0). Put plainly: P-gp transport, experimental BA/AB ratio, rat LLC-Mdr1a. To be noted: LLC-PK1; rat LLC-Mdrla; 1 μM substrate concentration. It counts as in vitro ADME.
Excerpt: as §1

Where [2] appears, read: Lab A, read-out: Rhesus PDE2 Ki (nM) - Lab A.
[3] abbreviates: Lab A, read-out: Human PDE2 Ki (nM) - Lab A.
Where [4] appears, read: Lab B, read-out: Rhesus PDE2 Ki (nM) - Lab B.
Where [5] appears, read: Lab B, read-out: Human PDE2 Ki (nM) - Lab B.

Rhesus PDE2A3, sequence (B3VTJ2 1-941): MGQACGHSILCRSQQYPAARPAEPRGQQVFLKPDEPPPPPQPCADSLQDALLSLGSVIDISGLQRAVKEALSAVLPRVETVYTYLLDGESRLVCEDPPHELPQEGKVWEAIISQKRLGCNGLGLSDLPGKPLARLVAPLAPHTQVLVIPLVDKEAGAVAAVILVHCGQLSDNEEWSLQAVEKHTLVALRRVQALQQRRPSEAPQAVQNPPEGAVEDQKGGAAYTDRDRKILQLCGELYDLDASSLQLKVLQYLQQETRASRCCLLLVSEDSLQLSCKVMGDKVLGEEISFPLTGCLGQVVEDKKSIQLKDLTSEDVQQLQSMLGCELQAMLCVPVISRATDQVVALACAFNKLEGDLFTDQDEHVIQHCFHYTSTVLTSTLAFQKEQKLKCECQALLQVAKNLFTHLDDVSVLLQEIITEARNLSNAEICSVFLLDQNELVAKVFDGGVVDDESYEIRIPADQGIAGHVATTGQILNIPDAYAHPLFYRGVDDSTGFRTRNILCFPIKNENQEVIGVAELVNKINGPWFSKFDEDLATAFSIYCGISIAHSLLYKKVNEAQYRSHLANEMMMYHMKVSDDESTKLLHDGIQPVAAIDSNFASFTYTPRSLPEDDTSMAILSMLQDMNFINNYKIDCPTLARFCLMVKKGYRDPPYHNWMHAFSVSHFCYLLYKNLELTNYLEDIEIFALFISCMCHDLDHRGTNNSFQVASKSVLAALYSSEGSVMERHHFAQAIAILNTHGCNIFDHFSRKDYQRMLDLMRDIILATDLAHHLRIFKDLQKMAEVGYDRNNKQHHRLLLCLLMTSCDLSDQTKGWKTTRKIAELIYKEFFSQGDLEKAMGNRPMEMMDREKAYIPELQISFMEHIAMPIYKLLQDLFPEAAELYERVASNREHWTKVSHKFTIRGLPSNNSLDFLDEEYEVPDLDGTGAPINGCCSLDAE
P-glycoprotein (P-gp), sequence (P08183 whole entry): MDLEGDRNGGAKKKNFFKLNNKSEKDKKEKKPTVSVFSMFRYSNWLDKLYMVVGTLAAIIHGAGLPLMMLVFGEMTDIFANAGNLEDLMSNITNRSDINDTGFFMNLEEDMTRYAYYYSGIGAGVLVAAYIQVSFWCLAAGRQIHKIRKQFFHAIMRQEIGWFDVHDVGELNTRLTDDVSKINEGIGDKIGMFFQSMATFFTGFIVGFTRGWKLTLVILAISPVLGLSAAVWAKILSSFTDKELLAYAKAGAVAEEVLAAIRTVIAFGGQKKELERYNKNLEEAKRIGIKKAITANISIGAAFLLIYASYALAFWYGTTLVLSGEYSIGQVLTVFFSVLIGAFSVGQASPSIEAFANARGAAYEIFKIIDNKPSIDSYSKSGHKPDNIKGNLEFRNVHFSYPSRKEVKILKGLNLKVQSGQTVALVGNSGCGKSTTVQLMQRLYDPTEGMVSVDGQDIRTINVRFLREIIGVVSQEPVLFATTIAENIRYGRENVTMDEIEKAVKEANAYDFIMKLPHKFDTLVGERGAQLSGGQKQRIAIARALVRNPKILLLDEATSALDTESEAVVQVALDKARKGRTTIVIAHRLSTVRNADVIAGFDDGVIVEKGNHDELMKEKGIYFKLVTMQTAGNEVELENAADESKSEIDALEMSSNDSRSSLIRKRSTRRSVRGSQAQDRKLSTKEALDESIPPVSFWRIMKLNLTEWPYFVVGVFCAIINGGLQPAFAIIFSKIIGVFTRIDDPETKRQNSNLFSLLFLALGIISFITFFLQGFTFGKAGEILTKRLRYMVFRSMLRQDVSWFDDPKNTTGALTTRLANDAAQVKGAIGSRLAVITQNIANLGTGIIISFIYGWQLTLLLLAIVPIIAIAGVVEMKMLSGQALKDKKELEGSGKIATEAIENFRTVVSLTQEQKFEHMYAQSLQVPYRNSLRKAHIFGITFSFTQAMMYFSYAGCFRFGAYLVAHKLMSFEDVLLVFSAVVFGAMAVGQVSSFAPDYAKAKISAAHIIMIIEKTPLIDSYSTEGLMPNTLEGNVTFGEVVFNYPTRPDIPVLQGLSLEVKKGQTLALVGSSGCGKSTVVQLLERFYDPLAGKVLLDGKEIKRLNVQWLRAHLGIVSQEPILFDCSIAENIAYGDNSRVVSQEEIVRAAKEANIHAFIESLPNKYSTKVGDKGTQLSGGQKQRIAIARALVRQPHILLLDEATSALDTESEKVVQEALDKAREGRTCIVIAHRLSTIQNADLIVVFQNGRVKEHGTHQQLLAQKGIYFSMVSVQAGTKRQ
P-glycoprotein (P-gp, rat Mdr1a), sequence (Q6PSM0 1-1272): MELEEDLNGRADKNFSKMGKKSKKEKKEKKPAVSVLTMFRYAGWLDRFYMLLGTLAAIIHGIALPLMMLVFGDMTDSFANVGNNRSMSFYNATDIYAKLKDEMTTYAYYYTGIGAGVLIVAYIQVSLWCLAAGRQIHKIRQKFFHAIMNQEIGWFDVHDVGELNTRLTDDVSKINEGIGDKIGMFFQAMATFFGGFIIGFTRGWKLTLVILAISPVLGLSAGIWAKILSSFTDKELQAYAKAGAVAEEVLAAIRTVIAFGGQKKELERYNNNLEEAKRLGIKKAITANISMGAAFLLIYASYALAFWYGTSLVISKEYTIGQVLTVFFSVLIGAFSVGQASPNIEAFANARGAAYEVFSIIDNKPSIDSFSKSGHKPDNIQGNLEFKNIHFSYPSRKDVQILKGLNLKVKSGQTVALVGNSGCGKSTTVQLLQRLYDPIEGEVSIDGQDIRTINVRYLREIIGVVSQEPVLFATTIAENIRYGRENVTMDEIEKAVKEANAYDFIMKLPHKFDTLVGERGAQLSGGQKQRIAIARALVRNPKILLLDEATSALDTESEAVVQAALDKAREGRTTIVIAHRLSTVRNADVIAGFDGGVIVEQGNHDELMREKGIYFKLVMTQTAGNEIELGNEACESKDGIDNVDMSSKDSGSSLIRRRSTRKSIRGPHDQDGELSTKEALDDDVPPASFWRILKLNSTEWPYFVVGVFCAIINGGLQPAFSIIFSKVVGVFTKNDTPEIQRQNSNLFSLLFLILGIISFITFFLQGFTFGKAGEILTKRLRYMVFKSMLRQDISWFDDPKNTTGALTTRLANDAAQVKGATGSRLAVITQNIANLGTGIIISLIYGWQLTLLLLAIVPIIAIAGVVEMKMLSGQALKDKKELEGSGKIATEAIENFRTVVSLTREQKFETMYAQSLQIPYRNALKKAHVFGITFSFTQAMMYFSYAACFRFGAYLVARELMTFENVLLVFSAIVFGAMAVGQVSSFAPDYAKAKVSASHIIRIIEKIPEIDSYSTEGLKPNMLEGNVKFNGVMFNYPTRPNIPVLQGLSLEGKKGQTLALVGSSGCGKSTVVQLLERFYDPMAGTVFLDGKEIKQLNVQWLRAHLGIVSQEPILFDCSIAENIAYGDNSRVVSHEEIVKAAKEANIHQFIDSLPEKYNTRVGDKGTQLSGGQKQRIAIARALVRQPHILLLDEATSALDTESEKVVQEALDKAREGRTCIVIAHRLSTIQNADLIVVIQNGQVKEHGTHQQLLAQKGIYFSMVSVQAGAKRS
human PDE2A1, sequence (O00408 other isoform, or with tags, fused parts or gaps): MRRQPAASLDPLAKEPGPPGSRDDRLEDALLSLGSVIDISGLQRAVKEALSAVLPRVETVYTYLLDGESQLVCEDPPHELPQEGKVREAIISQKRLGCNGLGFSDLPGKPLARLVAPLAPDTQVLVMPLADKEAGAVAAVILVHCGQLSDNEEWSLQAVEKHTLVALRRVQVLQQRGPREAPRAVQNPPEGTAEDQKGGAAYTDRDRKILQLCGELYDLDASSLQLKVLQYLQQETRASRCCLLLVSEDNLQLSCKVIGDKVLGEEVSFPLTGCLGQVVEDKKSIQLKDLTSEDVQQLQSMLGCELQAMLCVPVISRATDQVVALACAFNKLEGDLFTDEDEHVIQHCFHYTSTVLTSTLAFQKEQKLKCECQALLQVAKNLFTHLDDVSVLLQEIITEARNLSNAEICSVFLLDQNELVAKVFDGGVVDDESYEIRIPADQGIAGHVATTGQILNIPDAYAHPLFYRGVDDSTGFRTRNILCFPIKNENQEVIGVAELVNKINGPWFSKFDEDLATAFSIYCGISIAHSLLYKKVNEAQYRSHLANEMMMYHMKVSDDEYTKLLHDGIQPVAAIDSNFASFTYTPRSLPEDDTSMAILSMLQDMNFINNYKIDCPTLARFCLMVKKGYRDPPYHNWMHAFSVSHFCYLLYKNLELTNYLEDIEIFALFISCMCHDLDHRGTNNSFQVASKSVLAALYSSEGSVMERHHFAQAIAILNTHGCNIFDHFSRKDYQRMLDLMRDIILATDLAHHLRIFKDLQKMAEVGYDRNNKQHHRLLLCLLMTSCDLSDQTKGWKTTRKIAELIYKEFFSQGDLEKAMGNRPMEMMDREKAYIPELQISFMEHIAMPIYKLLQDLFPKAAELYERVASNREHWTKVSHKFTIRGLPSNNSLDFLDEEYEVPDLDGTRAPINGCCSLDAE

In the case of `C[C@@H](NC(=O)c1cc(=O)[nH]c(N(C)C)n1)c1ccc(OC(F)(F)F)c(F)c1` [Example 90, 2-(dimethylamino)-N-{(1R)-1-[3-fluoro-4-(trifluoromethoxy)phenyl]ethyl}-6-oxo-1,6-dihydropyrimidine-4-carboxamide], the values for the Ki on Rhesus PDE2A3 (setting [2]) and at human PDE2A1 (setting [3]) were 0.69 nM and 0.28 nM, respectively. Further, the results for the efflux ratio at 1 μM (on P-glycoprotein (P-gp); in data set [1]) were 0.5 and 2.7, respectively.

For `CN(C)c1nc(C(=O)NC2(c3ccc(C(F)(F)F)c(F)c3)CC2)cc(=O)[nH]1` [Example 94, 2-(dimethylamino)-N-{1-[3-fluoro-4-(trifluoromethyl)phenyl]cyclopropyl}-6-oxo-1,6-dihydropyrimidine-4-carboxamide], the Ki turned out to be 1.2 nM at Rhesus PDE2A3 (setting [2]), 0.8 nM at Rhesus PDE2A3 (setting [4]), 0.9 nM at human PDE2A1 (setting [3]) and 0.96 nM on human PDE2A1 (setting [5]). For the same compound, the values for the efflux ratio at 1 μM (on P-glycoprotein (P-gp); in data set [1]) were 0.5 and 2.6, respectively.

`CN(C)c1nc(C(=O)N[C@@H](c2ccc(C(F)F)c(F)c2)C(C)(C)C)cc(=O)[nH]1` [Example 62, N-{(1R)-1-[4-(difluoromethyl)-3-fluorophenyl]-2,2-dimethylpropyl}-2-(dimethylamino)-6-oxo-1,6-dihydropyrimidine-4-carboxamide]: the Ki was 0.55 nM on Rhesus PDE2A3 (setting [4]) and 0.52 nM at human PDE2A1 (setting [5]). Moreover, the efflux ratio at 1 μM worked out at 1.2 on P-glycoprotein (P-gp) and 5.2 in data set [1].

With `C[C@@H](NC(=O)c1cc(=O)[nH]c(N2CCC(F)(F)C2)n1)c1ccc(C(F)(F)F)cc1` [Example 13, (R)-2-(3,3-difluoropyrrolidin-1-yl)-6-oxo-N-(1-(4-(trifluoromethyl)phenyl)ethyl)-16-dihydropyrimidine-4-carboxamide], the values for the Ki on Rhesus PDE2A3 (setting [2]) and at human PDE2A1 (setting [3]) were 13 nM and 9.2 nM, respectively. Besides, the efflux ratio at 1 μM at P-glycoprotein (P-gp) was found to be 0.6; in data set [1], 5.9.

`CC(C)[C@@H](NC(=O)c1cc(=O)[nH]c(N(C)C)n1)c1ccc(C2CC2)c(F)c1` [Example 41, N-[(1R)-1-(4-cyclopropyl-3-fluorophenyl)-2-methylpropyl]-2-(dimethylamino)-6-oxo-1,6-dihydropyrimidine-4-carboxamide]: the Ki on Rhesus PDE2A3 (setting [4]) worked out at 0.31 nM; at human PDE2A1 (setting [5]) it was 0.36 nM. Moreover, the efflux ratio at 1 μM is 0.4 on P-glycoprotein (P-gp) and 3.6 in data set [1].

For the compound `C[C@@H](NC(=O)c1cc(=O)[nH]c(N(C)C)n1)c1ccc(OC(F)(F)F)cc1` [Example 87, 2-(dimethylamino)-6-oxo-N-{(1R)-1-[4-(trifluoromethoxy)phenyl]ethyl}-1,6-dihydropyrimidine-4-carboxamide], the values for the inhibition constant Ki at Rhesus PDE2A3 (setting [2]) and on human PDE2A1 (setting [3]) were 1.1 nM and 0.74 nM, respectively. Also, the efflux ratio at 1 μM on P-glycoprotein (P-gp) was determined as 0.5; in data set [1], 2.2.

On to `CN(C)c1nc(C(=O)NC2(c3ccc(S(F)(F)(F)(F)F)cc3)CC2)cc(=O)[nH]1` [Example 45, 2-(dimethylamino)-6-oxo-N-{1-[4-(pentafluoro-λ^6-sulfanyl)phenyl]cyclopropyl}-1,6-dihydropyrimidine-4-carboxamide], for which the inhibition constant (Ki) was 2.1 nM at Rhesus PDE2A3 (setting [4]) and 1.7 nM on human PDE2A1 (setting [5]). Further, the efflux ratio at 1 μM at P-glycoprotein (P-gp) came to 0.6; in data set [1] it was 10.1.

Regarding `CN(C)c1nc(C(=O)N[C@@H](c2ccc(OC(F)(F)F)c(F)c2)C2CC2)cc(=O)[nH]1` [Example 110, N-{(1R)-cyclopropyl[3-fluoro-4-(trifluoromethoxy)phenyl]methyl}-2-(dimethylamino)-6-oxo-1,6-dihydropyrimidine-4-carboxamide], the Ki at Rhesus PDE2A3 (setting [2]) was 0.48 nM; at Rhesus PDE2A3 (setting [4]) it was 0.96 nM; at human PDE2A1 (setting [5]), 1.3 nM. The efflux ratio at 1 μM on P-glycoprotein (P-gp) worked out at 0.5; in data set [1] it was 3.5.

`CN(C)c1nc(C(=O)N[C@@H](c2ccc(C3CC3)c(F)c2)C2CC2)cc(=O)[nH]1` [Example 56, N-[(R)-cyclopropyl(4-cyclopropyl-3-fluorophenyl)methyl]-2-(dimethylamino)-6-oxo-1,6-dihydropyrimidine-4-carboxamide]: the Ki worked out at 0.71 nM on Rhesus PDE2A3 (setting [4]) and 0.51 nM on human PDE2A1 (setting [5]). Moreover, the efflux ratio at 1 μM on P-glycoprotein (P-gp) stood at 0.3; in data set [1], 1.7.

`CN(C)c1nc(C(=O)N[C@@H](c2ccc(C(C)(C)C)cc2)C2(C)CC2)cc(=O)[nH]1` [Example 44, N-[(R)-(4-tert-butylphenyl)(1-methylcyclopropyl)methyl]-2-(dimethylamino)-6-oxo-1,6-dihydropyrimidine-4-carboxamide]: the results for the Ki on Rhesus PDE2A3 (setting [4]) and at human PDE2A1 (setting [5]) were 1.6 nM and 1.5 nM, respectively. The efflux ratio at 1 μM at P-glycoprotein (P-gp) was determined as 0.7; in data set [1], 2.1.

Turning to `CN(C)c1nc(C(=O)NC(c2ccc(S(F)(F)(F)(F)F)cc2F)C(C)(C)C)cc(=O)[nH]1` (single isomer, unassigned) [Example 128, (R)- or (S)-2-(dimethylamino)-N-{1-[2-fluoro-4-(pentafluoro-λ^6-sulfanyl)phenyl]-2,2-dimethylpropyl}-6-oxo-1,6-dihydropyrimidine-4-carboxamide], the figures for the Ki on Rhesus PDE2A3 (setting [4]) and at human PDE2A1 (setting [5]) were 0.22 nM and 0.15 nM, respectively. Moreover, the figures for the efflux ratio at 1 μM (on P-glycoprotein (P-gp); in data set [1]) were 1.4 and 4.8, respectively.

Turning to `CC(C)[C@@H](NC(=O)c1cc(=O)[nH]c(N(C)C)n1)c1ccc(SC(F)(F)F)c(F)c1` [Example 150, 2-(dimethylamino)-N-[(1R)-1-{3-fluoro-4-[(trifluoromethyl)sulfanyl]phenyl}-2-methylpropyl]-6-oxo-1,6-dihydropyrimidine-4-carboxamide], the Ki on Rhesus PDE2A3 (setting [2]) turned out to be 0.24 nM; on Rhesus PDE2A3 (setting [4]) it was 0.29 nM; at human PDE2A1 (setting [5]), 0.29 nM. Besides, the figures for the efflux ratio at 1 μM (on P-glycoprotein (P-gp); in data set [1]) were 1.1 and 4.4, respectively.

As to `COc1ccc(OCCCOc2nc(C(=O)NC(C)c3ccc(C(F)(F)F)cc3)cc(=O)[nH]2)cc1` (stereo not drawn) [Example 194, 2-[3-(4-methoxyphenoxy)propoxy]-6-oxo-N-{1-[4-(trifluoromethyl)phenyl]ethyl}-1,6-dihydropyrimidine-4-carboxamide], the results for the Ki on Rhesus PDE2A3 (setting [2]) and at human PDE2A1 (setting [3]) were roughly 5.2 nM and 4.4 nM, respectively. Also, the efflux ratio at 1 μM at P-glycoprotein (P-gp) is 1; in data set [1] it was 8.4.

In the case of `CNc1nc(C(=O)N[C@H](C)c2ccc(C(F)(F)F)cc2)cc(=O)[nH]1` [Example 135, 2-(methylamino)-6-oxo-N-{(1R)-1-[4-(trifluoromethyl)phenyl]ethyl}-1,6-dihydropyrimidine-4-carboxamide], the Ki came to 36 nM on Rhesus PDE2A3 (setting [2]) and 27 nM on human PDE2A1 (setting [3]). Besides, the efflux ratio at 1 μM was 2.7 at P-glycoprotein (P-gp) and 11.4 in data set [1].

Consider `CN(C)c1nc(C(=O)N[C@@H](c2ccc(C3CC3)cc2)C2(C)CC2)cc(=O)[nH]1` [Example 71, N-[(R)-(4-cyclopropylphenyl)(1-methylcyclopropyl)methyl]-2-(dimethylamino)-6-oxo-1,6-dihydropyrimidine-4-carboxamide], for which the Ki at Rhesus PDE2A3 (setting [4]) is 0.23 nM; at human PDE2A1 (setting [5]), 0.21 nM. The values for the efflux ratio at 1 μM (on P-glycoprotein (P-gp); in data set [1]) were 0.3 and 4.8, respectively.

For the compound `CN(C)c1nc(C(=O)N[C@@H](c2ccc(C(C)(F)F)cc2)C(C)(C)C)cc(=O)[nH]1` [Example 76, N-{(1R)-1-[4-(1,1-difluoroethyl)phenyl]-2,2-dimethylpropyl}-2-(dimethylamino)-6-oxo-1,6-dihydropyrimidine-4-carboxamide], the Ki at Rhesus PDE2A3 (setting [4]) worked out at 0.11 nM; at human PDE2A1 (setting [5]) it was 0.12 nM. Also, the efflux ratio at 1 μM is 1.6 at P-glycoprotein (P-gp) and 4.5 in data set [1].

With `CC(C)OCCCOc1nc(C(=O)NC(C)c2ccc(C(F)(F)F)cc2)cc(=O)[nH]1` (stereo not drawn) [Example 183, 2-[3-(1-methylethoxy)propoxy]-6-oxo-N-{1-[4-(trifluoromethyl)phenyl]ethyl}-1,6-dihydro pyrimidine-4-carboxamide], the inhibition constant (Ki) on Rhesus PDE2A3 (setting [2]) was determined as 29 nM; on human PDE2A1 (setting [3]) it was 23 nM. For the same compound, the efflux ratio at 1 μM on P-glycoprotein (P-gp) stood at 1.2; in data set [1], 7.9.

With `C[C@@H](NC(=O)c1cc(=O)[nH]c(N2CC[C@H](F)C2)n1)c1ccc(C(F)(F)F)cc1` [Example 12, 2-((S)-3-fluoropyrrolidin-1-yl)-6-oxo-N—((R)-1-(4-(trifluoromethyl)phenyl)ethyl)-1,6-dihydropyrimidine-4-carboxamide], the inhibitory constant (Ki) at Rhesus PDE2A3 (setting [2]) was 4.5 nM; on human PDE2A1 (setting [3]), 1.8 nM. Besides, the efflux ratio at 1 μM on P-glycoprotein (P-gp) turned out to be 0.7; in data set [1], 9.

On to `CC[C@@H](NC(=O)c1cc(=O)[nH]c(N(C)C)n1)c1ccc(OC(F)(F)F)c(F)c1` [Example 104, 2-(dimethylamino)-N-{(1R)-1-[3-fluoro-4-(trifluoromethoxy)phenyl]propyl}-6-oxo-1,6-dihydropyrimidine-4-carboxamide], for which the Ki on Rhesus PDE2A3 (setting [2]) was 0.56 nM; on Rhesus PDE2A3 (setting [4]), 1.1 nM; on human PDE2A1 (setting [5]), 1.1 nM. For the same compound, the figures for the efflux ratio at 1 μM (at P-glycoprotein (P-gp); in data set [1]) were 0.6 and 4.2, respectively.

A word on the Ki: it is the equilibrium dissociation constant of an inhibitor or competing ligand from its target. One may read the efflux ratio as a quotient of directional permeabilities that is used to spot active efflux.
